Test results taken from US20240299393A1, “SMALL MOLECULE DISRUPTORS OF PROTEIN INTERACTIONS IN HISTONE DEACETYLASE COMPLEXES” (Dana-Farber Cancer Institute, Inc., priority 2021, published 2024).
Entries after “also recorded” stand apart in the source; their conditions may differ.

Test system: human neuroblastoma SK-N-BE(2)-C xenograft
Test: Neuroblastoma xenograft efficacy study
Type: in vivo
Settings: E6R 50 mg/kg, SAHA 20 mg/kg
Protocol: Xenografts studies were performed at the TRACE PDX platform of the Leuven Cancer Institute (LKI) at KU Leuven-UZ Leuven. Treatment experiments included 24 NMRI-Foxlnu nude mice (Taconic) implanted with human neuroblastoma cell line SK-N-BE(2)-C(2 million cells/implant/mouse). Cells, tested for a full panel of murine pathogens (Impact profile I, IDEXX) prior to engraftment, were resuspended in 50% matrigel solution in PBS for injection in the mouse right flank. When tumors reached a volume of approximately 200 mm^3, mice were randomly assigned to vehicle (34% DMSO, 55% saline 0.9%, 5% ethanol, 5% kolliphor, 1% NaOH 1 M), E6R (50 mg/kg), or SAHA (20 mg/kg) treatment groups. Treatments were administered daily intraperitoneally for 10 days or until reaching human endpoint (i.e. tumor volume >1,500 mm^3). Tumors were measured daily with digital calipers, and volume was estimated as V=L×W×H×(π/6) (L: length; W: width; H: height). […] All data were analyzed using GraphPad Prism 8. Comparisons between the vehicle and treated groups were tested for statistical significance using […].

C[C@@H](NC(=O)c1c(O)n2ccccc2nc1=O)c1ccccc1 [E6R, 4-hydroxy-2-oxo-N—((R)-1-phenylethyl)-3,4-dihydro-2H-pyrido[, 2-a]pyrimidine-3-carboxamide]
tolerability and body weight of xenografted mice (daily): did not affect mice weight; also recorded: well-tolerated | growth of neuroblastoma tumors compared to vehicle (daily intraperitoneally 10 days): significantly reduced the growth
